From patent EP1633374B1, “COMPOSITION CONSISTING OF ALKANE DICARBOXYLIC ACIDS AND A PHARMACEUTICALLY ACTIVE INGREDIENT” (Intendis GmbH, priority 2003, dated 2004)
Entries after “also recorded” stand apart in the source; their conditions may differ.

Tested on: durch Crotonöl entzündete Maushaut
Experiment: Croton oil-induced inflammation of the mouse ear (irritant contact dermatitis model), leukocyte infiltration of the skin
Format: in vivo, Maus
Settings: for Inhibition [%] der Hautinfiltration * von Granulozyten & Monozyten (Myelo-Peroxidaseaktivität) / Inhibition [%] der Hautinfiltration * von Neutrophilen Elastaseaktivität: Crotonöl challenge, mouse ear skin, topical treatment in Ethanol/Isopropylmyristat, inhibition vs Crotonöl + Vehikel (0 %), 100 % = Vehikel/Vehikel, significance given (n.s. or p<0.05); for therapeutische Effekte im Vergleich zum Vehikel: inflammation model, in Ethanol/Isopropylmyristat, Peroxidase- and Elastase-Aktivität in der Haut, result in words
Description: Die Induktion einer entzündlichen Reaktion (irritative Kontaktdermatitis) ist ein weit verbreitetes Modell zur pharmakologischen Evaluierung des anti - inflammatorischen Potentials von topisch oder systemisch applizierten Testsubstanzen. (Trancik and Lowe (1985) Evaluation of topical nonsteroidal anti - inflammatory agents, Models in Dermatology, H. Maibach and N.J. Lowe, Basel Karger: 35 - 42) Es hat sich unter anderem bei der Testung von nicht - steroidalen Antiphlogistika sowie bei Glukokortikosteroiden bewährt und gilt als der am besten reproduzierbare in vivo Testversuch für die Evaluierung topischer anti - inflammatorischer Substanzen (Lorenzetti (1975) Animal to Clinical Correlation of Topical Anti - Inflammatory Efficacy, Animal models in dermatology. H. Maibach, Basel Karger: 212 - 224)
Die Induktion einer entzündlichen Reaktion (irritative Kontaktdermatitis) ist ein weit verbreitetes Modell zur pharmakologischen Evaluierung des anti - inflammatorischen Potentials von topisch oder systemisch applizierten Testsubstanzen (Trancik and Lowe (1985) Evaluation of topical nonsteroidal anti - inflammatory agents, Models in Dermatology, H. Maibach and N.J. Lowe. Basel, Karger: 35 - 42). Es hat sich u.a. bei der Testung von nicht - steroidalen Antiphlogistika sowie bei Glukokortikosteroiden bewährt und gilt als der am besten reproduzierbare in vivo Versuch für die Evaluierung topischer anti - inflammatorischer Substanzen (Lorenzetti (1975) Animal to Clinical correlation of Topical Anti - inflammatory Efficacy. Animal models in dermatology. H. Maibach. Basel Karger: 212 - 225).
Die Applikation des Phorbolesters Crotonöl auf Mäuseohren führt zu einer akuten, entzündlichen Reaktion mit Ödem und Einwanderung von vorwiegend polymorphkernigen Granulozyten, die binnen 24h ihr Maximum erreicht. Testsubstanzen können hierbei entweder präventiv (d.h. vor Applikation des entzündlichen Reizes) oder simultan mit Crotonöl appliziert werden. Die Crotonöl - induzierte Entzündung am Mäuseohr ist nicht nur ein Modell der irritativen und/oder allergischen Kontaktdermatitis, sondern auch anderer Hauterkrankungen, die mit einer starken Entzündung und Einwanderung von Granulozyten verbunden sind. Hierzu zählen die Psoriasis, atopische Dermatitis, Akne vulgaris und das entzündliche Stadium der Rosacea.
Erstaunlicher Weise wurde gefunden, dass eine Kombinationstherapie von Metronidazol (0.75%) und Azelainsäure (20%) in Ethanol/Isopropylmyristat im Vergleich zum Vehikel signifikant therapeutisch effektiv waren, wohingegen die beiden Einzelsubstanzen Metronidazol (0.75%) bzw. […] Die Wirksamkeit beinhaltete u.a. die Einwanderung von Leukozyten gemessen als Peroxidase-Aktivität in der Haut sowie die Einwanderung von neutrophilen Granulozyten gemessen als Elastase-Aktivität in der Haut (Tabelle 1).
Die Leukozyteninfiltration in die durch Crotonöl entzündete Maushaut wird durch die kombinierte Behandlung mit Azelainsäure und Metronidazol im Vergleich zu Vehikelbehandlung signifikant inhibiert, wohingegen die einzelnen Wirkstoffe nicht so effektiv waren.

## Cc1ncc([N+](=O)[O-])n1CCO [Metronidazol (0.75%), 1-(2-hydroxyethyl)-2-methyl-5-nitroimidazol]
  Inhibition [%] der Hautinfiltration * von Granulozyten & Monozyten (Myelo-Peroxidaseaktivität): 9 (n.s.) * %
  Inhibition [%] der Hautinfiltration * von Neutrophilen Elastaseaktivität: 18 (n.s.) * %
  therapeutische Effekte im Vergleich zum Vehikel: keine so hohen, therapeutischen Effekte; also recorded: keine so hohe, therapeutische Effekte

## O=C(O)CCCCCCCC(=O)O [Azelainsäure (20%), Azelainsäure]
  Inhibition [%] der Hautinfiltration * von Granulozyten & Monozyten (Myelo-Peroxidaseaktivität): 21 (n.s.) * %
  Inhibition [%] der Hautinfiltration * von Neutrophilen Elastaseaktivität: 11 (n.s.) * %
  therapeutische Effekte im Vergleich zum Vehikel: keine so hohen, therapeutischen Effekte; also recorded: keine so hohe, therapeutische Effekte

## C[C@H]1C[C@@H]2[C@H]([C@@H](O)C[C@@]3(C)[C@H]2CC[C@]3(O)C(=O)CO)[C@@]2(C)C=CC(=O)C=C12 [Methylprednisolon]
  Inhibition [%] der Hautinfiltration * von Granulozyten & Monozyten (Myelo-Peroxidaseaktivität): 90 (p<0.05) ^* %
  Inhibition [%] der Hautinfiltration * von Neutrophilen Elastaseaktivität: 95 (p<0.05) ^* %
